From US20240002351A1, “QUINAZOLIN-4-ONE AND THIENO[2,3-D]PYRIMIDIN-4-ONE INHIBITORS OF ERBB4 (HER4) FOR USE IN THE TREATMENT OF CANCER” (UNIVERSITEIT ANTWERPEN, priority 2021, published 2024) come the findings set out here.

In one data set the test system is EFO-21 cells. The data set can be described thus: AK (adenylate kinase) toxicity assay. The class given is cell-based. Particulars: 32 μM, 24 hours, EFO-21 cells (FIG. 3). Here is the method:
EFO-21 cells were seeded at 10,000 cells/well in 100 μL cell medium in white walled 96-well plates (PerkinElmer, 6005680) and incubated overnight at 37° C. in humidified atmosphere of 5% CO2 in air. Next, cells were put on serum starved (SS) medium (0,1% FBS) overnight. Overnight cell cultures were then stimulated with PBS, compound (32 μM, Enamine) and/or NRG-1 (0.1 μM, Peprotech, 100-03) for 24 hours at 37° C. in humidified atmosphere of 5% CO2 in air. […] Next, 100 μL Toxilight AK detection reagent was added to each well and incubated at room temperature for 5 minutes. Luminescence was measured using the Luminoskan Ascent (Thermofisher).

In data set [1] the target is T1, ERBB4 (Homo sapiens, UniProt Q15303).
T1 construct: host or cells: U2OS
T1 sequence (Q15303 26-1308): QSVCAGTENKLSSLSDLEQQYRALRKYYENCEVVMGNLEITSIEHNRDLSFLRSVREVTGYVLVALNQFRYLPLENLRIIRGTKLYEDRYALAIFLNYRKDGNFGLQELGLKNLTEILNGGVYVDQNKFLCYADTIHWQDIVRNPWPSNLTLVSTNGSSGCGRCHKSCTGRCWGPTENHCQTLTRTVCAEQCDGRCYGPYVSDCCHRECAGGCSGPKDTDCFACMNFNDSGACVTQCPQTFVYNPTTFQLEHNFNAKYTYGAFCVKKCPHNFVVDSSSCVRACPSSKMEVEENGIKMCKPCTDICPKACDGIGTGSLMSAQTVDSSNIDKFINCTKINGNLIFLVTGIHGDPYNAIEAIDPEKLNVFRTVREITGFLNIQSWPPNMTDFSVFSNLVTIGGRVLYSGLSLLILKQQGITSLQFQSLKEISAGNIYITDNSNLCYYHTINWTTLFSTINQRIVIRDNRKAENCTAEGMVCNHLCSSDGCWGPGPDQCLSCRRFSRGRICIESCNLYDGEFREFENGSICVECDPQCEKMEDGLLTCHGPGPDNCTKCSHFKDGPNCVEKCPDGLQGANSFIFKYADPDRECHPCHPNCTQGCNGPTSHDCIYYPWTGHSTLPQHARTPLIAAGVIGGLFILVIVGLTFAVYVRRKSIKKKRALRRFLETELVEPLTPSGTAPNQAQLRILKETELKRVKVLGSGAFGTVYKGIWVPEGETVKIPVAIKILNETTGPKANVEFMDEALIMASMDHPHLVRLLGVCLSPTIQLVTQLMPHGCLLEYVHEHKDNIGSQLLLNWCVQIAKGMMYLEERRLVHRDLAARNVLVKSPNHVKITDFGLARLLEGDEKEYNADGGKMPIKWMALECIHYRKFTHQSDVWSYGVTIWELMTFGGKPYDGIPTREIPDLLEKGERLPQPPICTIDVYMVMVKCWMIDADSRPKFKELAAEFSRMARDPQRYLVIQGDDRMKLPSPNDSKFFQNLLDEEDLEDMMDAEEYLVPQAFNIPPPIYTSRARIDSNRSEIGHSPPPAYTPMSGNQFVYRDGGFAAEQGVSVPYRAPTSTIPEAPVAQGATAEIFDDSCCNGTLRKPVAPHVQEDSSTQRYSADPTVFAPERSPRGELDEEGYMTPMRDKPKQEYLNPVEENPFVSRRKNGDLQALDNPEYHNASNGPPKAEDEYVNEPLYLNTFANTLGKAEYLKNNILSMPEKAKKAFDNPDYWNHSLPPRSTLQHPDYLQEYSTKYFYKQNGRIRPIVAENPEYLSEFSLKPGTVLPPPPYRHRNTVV
Description: PathHunter ERBB4/ERBB4 dimerization assay, dose-response curves. In kind it is cell-based. The settings on record: U2OS ERBB4/ERBB4 dimerization cell line, 6 hours, compound alone; for Emax: NRG-1 = 100. On the procedure: (§1) Following 1-12 passages, U2OS ERBB4/ERBB4 dimerization cell line (Eurofins, 93-0961C3) were seeded at 10,000 cells/well in 100 μL cell plating reagent (Eurofins, 93-0563R0A) in white walled 96-well plates (PerkinElmer, 6005680) and incubated for 24h at 37° C. in humidified atmosphere of 5% CO2 in air. Cells were treated with 10 μL of compound (prepared at 11×, Enamine), 10 μM Heregulin-β1 (NRG-1) (DiscoverX, 92-1031 or Peprotech, 100-03) or PBS. […] Cells were subsequently incubated for 6 hours at 37° C., 5% CO2. Then 110 μL PathHunter Flash Detection Reagents (93-0247) were added to each well and cells were incubated at room temperature for 1 hour (covered from light). Afterwards luminescence signal was measured using the Luminoskan Ascent (Thermofisher). Dose response curves of the compounds were performed in 2-fold (0,0625 μM-32 μM).
From these curves, the EC50 and the Emax of the compounds was calculated.

Data set [2] concerns the target T1, ERBB4. The data set can be described thus: PathHunter ERBB4/ERBB4 dimerization assay, compounds on top of 0.1 μM NRG-1 (identification of modulators). In kind it is cell-based. The settings on record: for EC50: on top of 0.1 μM NRG1; for Emax: on top of 0.1 μM NRG1, relative to NRG1 (set as 100%); for behaviour from the shape of the dose-response curves: on top of 0.1 μM neuregulin-1 (FIG. 1). On the procedure:
as §1
Cells were treated with compound (prepared at 22×, 10 min pre-incubation) together with NRG-1 (0.1 μM final concentration, Peprotech, 100-03), or NRG-1 (0.1 μM final concentration) or PBS.
The EC50 and the Emax of the compounds on top of 0.1 μM NRG1 is depicted in Table 3 relative to NRG1 (set as 100%).

The nature of the next data set: Chemical stability. The class given is physicochemical. The settings on record: 37° C. and pH 7.4 for 24 hours (FIG. 11). On the procedure: A 10 μL aliquot of compound solution (10 mM in DMSO) was added to 990 μL DMSO (100 μM) and further diluted with […] to a stock solution of 500 nM. The mixture was incubated at 37° C. Aliquots of 100 μL were taken at various time points (0, 0.5, 1, 2, 3, 6 and 24 hrs) and analyzed with LC-MS/MS (Waters Acquity H-class UPLC system with ion trap mass spectrometer, Bruker Daltonics Esquire 3000 plus, and Agilent 1100 Series LC system). Samples were analyzed in triplicate and plotted against a standard curve; compound at 31-500 nM in buffer solution of pH 7.4 (10 mM Potassium Phosphate, BD Gentest).

The nature of data set [3]: Metabolic stability, human liver microsomes. In kind it is in vitro ADME. On the procedure: (§2) A mixture of 713 μL milliQ water (Millipore, MA, USA), 200 μL 0.5 M phosphate buffer (pH 7.4, BD Diagnostic Systems, MD, USA), 50 μL NADPH regenerating system solution A (BD Biosciences, CA, USA), 10 μL NADPH regenerating system solution B (BD Biosciences, CA, USA) and 2 μL compound (5 mM in DMSO) was prepared and heated for 5 min at 37° C. Twenty-five μL of liver microsomes (0.5 mg protein/mL, Corning B.V. Life Sciences, Amsterdam, Netherlands) was added to the mixture and 20 μL samples were withdrawn at 0, 0.25, 0.5 and 1, 2, 4, 6 and 24 hours. Eighty μL (4×20 μL) of cold acetonitrile (Sigma-Aldrich, MO, USA) was added to the samples on ice for 10 min. Afterwards, the mixtures were centrifuged at 13,000 rpm for 5 min at 4° C. Seventy-five μL of an acetonitrile/water (10/90) mixture was added to 25 μL supernatant and the obtained samples were analyzed by LC-MS/MS (Waters Acquity H-class UPLC system with ion trap mass spectrometer, Bruker Daltonics Esquire 3000 plus, and Agilent 1100 Series LC system) in triplicate.
In general terms: Liver microsomes are vesicles of endoplasmic reticulum, rich in cytochrome P450 enzymes.

A short description of data set [4]: Solubility in PBS (absorbance). In kind it is physicochemical. The settings on record: aqueous buffer, kinetic from dmso stock, 37° C., 2 hours (FIG. 10), read-out: solubility: concentration at which easily soluble. On the procedure: A dilution series (0.16, 0.31, 0.62, 1.25, 2.5 and 5 mM) was made starting with a compound stock solution of 10 mM in DMSO. Aliquot of 4 μL was taken out of every dilution and added to 196 μL PBS in a 96-well plate. The plate was shaken for 10 seconds, incubated at 37° C. for 2 hours and thereafter absorbance was measured. Samples were analyzed in duplicate.

Data set [5] can be described thus: Plasma stability, human plasma. The settings on record: 50 μM, 37° C., over 6 hours (FIG. 12). In kind it is in vitro ADME. On the procedure:
(§3) A 5 μL aliquot of compound solution (10 mM in DMSO) was added to 995 μL of Non Swiss Albino Mouse Plasma (DivBioScience, Breda, Netherlands) or Pooled Normal Human plasma in sodium citrate to obtain a final concentration of 50 μM compound in plasma. The mixture was gently shaken for 6 hours at 37° C. Aliquots of 100 μL were taken at various time points (0, 0.5, 1, 2 and 6 hrs.) and diluted with 400 μL of cold acetonitrile (Sigma-Aldrich, stored at 4° C.). The suspension was centrifuged at 14000 rpm for 5 min. Thereafter, 50 μL of the supernatant was diluted with 950 μL of acetonitrile and analyzed with LC-MS/MS (Waters Acquity H-class UPLC system with ion trap mass spectrometer, Bruker Daltonics Esquire 3000 plus, and Agilent 1100 Series LC system). Samples were analyzed in triplicate and plotted against a standard curve (compound at 3.12-100 μM in plasma and diluted in acetonitrile as described above).

Data set [6] can be described thus: Plasma stability, mouse plasma. The settings on record: 50 μM, 37° C., over 6 hours (FIG. 12). In kind it is in vitro ADME. Here is the method: as §3
A short description of data set [7]: Metabolic stability, mouse liver microsomes. In kind it is in vitro ADME. Here is the method:
as §2

In data set [8] the test system is Human atrial cardiac fibroblasts (HCF). The data set can be described thus: In vitro fibrosis assay, TGFβ-stimulated HCF (qRT-PCR). The settings on record: TGFβ 10 ng/mL, 24 hours (FIG. 9). In kind it is cell-based. Here is the method:
Human dermal fibroblasts (HDF, Cell applications, 106-05A) were cultured in Dulbecco's modified Eagle's medium (DMEM, ThermoFisher Scientific, 11995065) supplemented with 10% (v/v) heat-inactivated fetal bovine serum (FBS, ThermoFisher Scientific, 10082147), 1% penicillin/streptomycin and 1 mL polymyxin B and were maintained at 37° C. in humidified atmosphere of 5% CO2 in air. Human atrial cardiac fibroblasts (HCF, Innoprot, P10454) were cultured in fibroblast medium (Innoprot, P60108) supplemented with fetal bovine serum, fibroblast growth supplement and penicillin/streptomycin and were maintained at 37° C. in humidified atmosphere of 5% CO2 in air.
Following 1-9 passages, HDF and HCF were seeded at 0.3×10^6 cells/well in 1 mL cell medium in 12-well plates and incubated overnight at 37° C. in humidified atmosphere of 5% CO2 in air. Next, cells were put on serum starved medium (0.1% FBS) for 8 hours and then stimulated for 24 hours with either PBS, active compound (4-32 μM) or non-active compound (NA1, NA2; 4-32 μM) on top of TGFβ (10 ng/mL, Peprotech, 100-21). […] Next, cells were lysed using 100 μL lysis buffer RA1 (of RNA isolation kit below) supplemented with β-mercapto-ethanol (100:1), scraped with a cell scraper and transferred to centrifuge tubes to be stored at −20° C. for a maximum of 2 weeks before RNA isolation.
RNA was extracted using Nucleospin RNA XS (Machery Nagel) according to the manufacturer's instructions. For cDNA synthesis, total RNA was added to a solution containing buffer with random hexamers and reverse transcriptase enzyme. The PCR was performed using the following parameters: 10 minutes at 25° C., 30 minutes at 48° C., 5 minutes at 95° C. RT-qPCR on the cDNA samples was performed using Taqman Universal PCR Master Mix (Applied Biosystems) and Taqman primers according to the manufacturer's instructions. […] Expression levels were calculated using the comparative cycle method and expressed as fold change to appropriate (background) control. […]
(Real-time PCR tracks product formation cycle by cycle.)

For orientation: EC50 means the concentration that produces a half-maximal response. Read a high EC50 as weaker potency. Broadly, the Emax is the size of the effect at its maximum, as opposed to the concentration needed.

Take `O=C1NCCCCC1Sc1nc2sc3c(c2c(=O)n1C1CCCC1)CCCC3` (stereo not drawn) [Compound 5]: the “toxicity (AK release)” value with EFO-21 cells is “limited toxicity”. In addition, at ERBB4 [1], the midpoint of the response, the EC50, lay at 6.11 µM and the Emax turned out to be 17.7 ± 3.45%. Also, at ERBB4 [2], the EC50 was roughly 3.36 µM, the Emax was found to be 63 ± 14% and the “behaviour from the shape of the dose-response curves” value (“behaviour from the shape” for short) is reported as “partial agonists or allosteric agonists functioning as partial agonists”.

At ERBB4 [1], `CC(=O)c1ccc(NC(=O)C(C)Sc2nc3ccccc3c(=O)n2C2CCCC2)cc1` (stereo not drawn) [Compound 2] returned a half-maximal effective concentration (EC50) of 10.9 µM and an Emax of 9.48 ± 2.13%. Further, at ERBB4 [2], the Emax was determined as 126 ± 36% and the “behaviour from the shape” value is on record as “weak or silent allosteric modulators”.

On to `CC(C)n1c(SC(C(=O)NC2CC2)c2ccccc2)nc2sc3c(c2c1=O)CCC3` (stereo not drawn) [Compound 4], for which the chemical stability result in “Chemical stability” is on record as “chemically stable”. Besides, the “t1/2 human” value in data set [3] (human liver microsomes) turned out to be 18 min. For the same molecule, the half-life at 10 µM in data set [3] (human, liver microsomes, pH 7.4, human liver microsomes, read-out: t1/2 human) is 17 to 18 min. Moreover, the solubility at 2 h in data set [4] was less than 25 µM. For the same molecule, the “plasma stability, human plasma” value in data set [5] is recorded as “stable”. In addition, at ERBB4 [1], the half-maximal effective concentration (EC50) was 7.54 µM and the Emax was 16.9 ± 3.69%. For the same molecule, on ERBB4 [2], the EC50 was roughly 21.5 µM, the Emax is 192 ± 34% and the “behaviour from the shape” value was “ago-allosteric modulators”. Also, in data set [6], the “plasma stability, mouse plasma” value was “stable”. For the same molecule, the “t1/2 mouse” value in data set [7] (mouse liver microsomes) is 12 min. Further, the half-life at 10 µM in data set [7] (mouse, liver microsomes, pH 7.4, mouse liver microsomes, read-out: t1/2 mouse) lay within 8 to 12 min.

For the molecule `CC(Sc1nc2ccccc2c(=O)n1C1CCCC1)C(=O)N(C)c1ccccc1` (stereo not drawn) [Compound 3], the “col1a1 levels in comparison with TGFβ control” value in data set [8] was “significantly decrease col1a1 levels”. The “toxicity (AK release)” value in the data set with EFO-21 cells was “limited toxicity”. Moreover, on ERBB4 [1], the 50% effective concentration (EC50) is 15.8 µM and the Emax worked out at 14.3 ± 2.63%. In addition, on ERBB4 [2], the Emax is 36 ± 13% and the “behaviour from the shape” value was “partial agonists or allosteric agonists functioning as partial agonists”.

Regarding `Cc1sc2cc(SCC(=O)NC(C)(C#N)C(C)C)n(C3CCCC3)c(=O)c2c1C` (stereo not drawn) [Compound 8], at ERBB4 [1], the EC50 worked out at 20.4 µM and the Emax turned out to be 18.4 ± 3.47%. Besides, at ERBB4 [2], the Emax stood at 174 ± 38% and the “behaviour from the shape” value is “ago-allosteric modulators”.
